Laboratory results: ChEMBL document CHEMBL5126536, “Small molecules targeting γ-secretase and their potential biological applications” (Eur J Med Chem, 2022)
Values belong to the molecule of their own block, whether it stands above or below them.

How the values were obtained:
Mus musculus [1] = experiment: Modulation of gamma secretase in hippocampus of C57BL mouse assessed as reduction in amyloid beta 42 at 3 mg/kg, po measured for 0.5 to 18 hrs by ELISA relative to control; format: organism-based; set-up: scale not given: the % may be the effect or the level left; settings: time 0.5-18 hrs
Mus musculus [2] = experiment: Modulation of gamma secretase in hippocampus of C57BL mouse assessed as reduction in amyloid beta 42 at 10 mg/kg, po measured for 0.5 to 18 hrs by ELISA relative to control; format: organism-based; settings: filed as modulator, time 0.5-18 hrs
Homo sapiens = species on record: Homo sapiens; experiment: Selectivity ratio, ratio of IC50 for gamma-secretase (unknown origin) to IC50for Notch (unknown origin)
[3] = Metabolic stability in human liver microsomes assessed as half life; format: ADME, Microsome
Gamma-secretase [4] = experiment: Inhibition of gamma-secretase (unknown origin) assessed as inhibition of Amyloid beta 40 production by cell-free assay; format: protein-complex assay, Homo sapiens
Gamma-secretase [5] = experiment: Inhibition of gamma-secretase (unknown origin) assessed as inhibition of Amyloid beta 42 production by cell-free assay; format: protein-complex assay, Homo sapiens
[6] = Ratio of drug concentration in Tg2576 mouse brain to plasma at 1 to 30 mg/kg, po; format: ADME, organism-based; settings: dose 1-30 mg/kg, read-out: BPR
[7] = Toxicity in Sprague-Dawley rat assessed as maximum tolerated dose administered orally upto 28 days consecutively; settings: in vivo, route po, time < 28 day
[8] = Inhibition of amyloid beta (unknown origin) production; set-up: species or system Homo sapiens
[9] = Inhibition of Notch cleavage in transgenic HEK293 cells; format: cell-based; settings: Homo sapiens
[10] = Inhibition of Notch (unknown origin) by cell-based assay; settings: Homo sapiens
[11] = Inhibition of Notch in human H4 cells; format: cell-based
Gamma-secretase [12] = experiment: Inhibition of gamma-secretase in human H4 cells assessed as reduction in amyloid beta 42; format: cell-based
Mus musculus [13] = experiment: Antialzheimer activity in Tg2576 mouse model assessed as decrease in amyloid beta 42 level at 10 mg/kg measured on day 8; format: functional; set-up: scale not given: the % may be the effect or the level left; settings: time 8 day
Mus musculus [14] = experiment: Antialzheimer activity in Tg2576 mouse model assessed as decrease in amyloid beta 40 level at 10 mg/kg measured on day 8; format: functional; set-up: scale not given: the % may be the effect or the level left; settings: time 8 day
[15] = target: Amyloid-beta precursor protein (Homo sapiens, UniProt P05067); experiment: Modulation of amyloid beta 42 in human H4 cells expressing APP751 incubated overnight by ELISA; format: cell-based
[16] = Modulation of gamma-secretase in human H4 cells expressing APPswe mutant assessed as reduction in amyloid beta 42 by ELISA; format: cell-based
[17] = Oral bioavailability in rat; format: ADME, organism-based; settings: in vivo
[18] = Half life in rat; format: ADME; settings: in vivo

Amyloid-beta precursor protein, sequence (P05067 whole entry): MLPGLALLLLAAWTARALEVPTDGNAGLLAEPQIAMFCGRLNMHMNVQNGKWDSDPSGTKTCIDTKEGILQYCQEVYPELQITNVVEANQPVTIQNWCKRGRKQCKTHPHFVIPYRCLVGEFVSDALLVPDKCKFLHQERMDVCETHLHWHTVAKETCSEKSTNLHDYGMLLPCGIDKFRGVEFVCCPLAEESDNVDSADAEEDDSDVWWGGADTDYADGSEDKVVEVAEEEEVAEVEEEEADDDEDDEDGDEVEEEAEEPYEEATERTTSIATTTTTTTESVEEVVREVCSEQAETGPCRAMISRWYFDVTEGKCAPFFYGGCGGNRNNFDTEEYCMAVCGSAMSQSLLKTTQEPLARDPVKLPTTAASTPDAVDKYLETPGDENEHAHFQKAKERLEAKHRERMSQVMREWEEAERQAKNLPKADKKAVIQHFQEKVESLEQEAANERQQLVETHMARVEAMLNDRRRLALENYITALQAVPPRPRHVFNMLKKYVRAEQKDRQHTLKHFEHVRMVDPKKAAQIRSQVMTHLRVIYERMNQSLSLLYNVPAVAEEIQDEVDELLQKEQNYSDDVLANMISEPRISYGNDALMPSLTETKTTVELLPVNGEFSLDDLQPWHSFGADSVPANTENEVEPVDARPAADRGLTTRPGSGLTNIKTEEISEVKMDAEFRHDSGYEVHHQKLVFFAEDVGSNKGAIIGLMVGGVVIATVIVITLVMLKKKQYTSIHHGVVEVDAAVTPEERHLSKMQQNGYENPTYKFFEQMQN

Structure (SMILES): COc1cc(-c2nnc3n2CCC[C@]3(Oc2cc(F)c(F)c(F)c2)C(C)(C)O)ccc1-c1cnc(C)o1
Activity (Mus musculus [1]): 23.2%
inhibition (Mus musculus [2]): 46.5%

Structure (SMILES): O=S(=O)(N[C@H](CO)C(C(F)(F)F)C(F)(F)F)c1ccc(Cl)s1 [BEGACESTAT]
Ratio IC50 (Homo sapiens): 16.8
half-life [3]: 1.5 h
EC50 (Gamma-secretase [4]): 14.8 nM
EC50 (Gamma-secretase [5]): 12.4 nM
Kp [6]: > 1
MTD at 672 h [7]: 2000 mg/kg/day

Structure (SMILES): CC(C)[C@H](O)C(=O)N[C@@H](C)C(=O)N[C@@H]1C(=O)N(C)CCc2ccccc21
IC50 [11]: 14.1 nM
IC50 (Gamma-secretase [12]): 10.9 nM
Activity (Mus musculus [13]): 22%
Activity (Mus musculus [14]): 22%

Structure (SMILES): O=C(O)C1(c2ccc(-c3ccc(Cl)c(Cl)c3)c(F)c2)CC1
IC50 [16]: 3600 nM
bioavailability [17]: 50%
half-life [18]: 20 h

Other lines, results leading:

IC50 [8]: 0.082 nM
IC50 [9]: 0.39 nM
Structure (SMILES): C[C@H](NC(=O)[C@@H](O)c1cc(F)cc(F)c1)C(=O)N[C@@H]1C(=O)N(C)c2ccccc2-c2ccccc21

IC50 [10]: 0.41 nM
Structure (SMILES): C[C@H](NC(=O)CCC(F)(F)F)C(=O)N[C@@H]1C(=O)N(CCO)c2ncccc2-c2ccccc21

EC50 [15]: 35 nM
Structure (SMILES): COc1nc(C2=NOC[C@H](c3cc4ccccc4o3)N2)ccc1-n1cnc(C)c1
